Results published in ChEMBL document CHEMBL3588753, “Recent progress in the drug development of coumarin derivatives as potent antituberculosis agents” (2015).
≈ marks a conversion by molar mass, not a printed value.

tested on: Mycobacterium tuberculosis; assay: Antimycobacterial activity against Mycobacterium tuberculosis H37Rv assessed as growth inhibition at 6.25 ug/ml by Alamar Blue staining-based broth microdilution assay; format: functional; conditions: not given

Row | SMILES | inhibition at 6.25 µg/mL [%]
1 | O=c1oc2ccccc2c(O)c1C1=Nc2ccccc2SC(c2c[nH]c3ccccc23)C1 (centres undefined) | 80
2 | O=c1oc2ccccc2c(O)c1C1=Nc2ccccc2SC(c2ccc([N+](=O)[O-])cc2)C1 (centres undefined) | 93
3 | Cc1cc2oc(=O)cc(Nc3ccc4ccccc4c3)c2cc1Cl | 100
4 | O=c1oc2ccccc2c(O)c1C1=Nc2ccccc2SC(c2ccccc2O)C1 (centres undefined) | 94
5 | O=c1cc(Nc2ccc3ccccc3c2)c2ccccc2o1 | 81

tested on: Mycobacterium tuberculosis; assay: Ratio of CPFX IC50 to compound IC50 Mycobacterium tuberculosis H37Rv assessed as growth inhibition; format: functional; conditions: not given

Row | SMILES | Ratio IC50
6 | COc1ccc2cc(C(=O)CN3CCN(c4c(F)cc5c(=O)c(C(=O)O)cn(C6CC6)c5c4OC)CC3)c(=O)oc2c1 | 2

tested on: Mycobacterium tuberculosis; assay: Antimycobacterial activity against Mycobacterium tuberculosis H37Rv assessed as growth inhibition by Alamar Blue staining-based broth microdilution assay; format: functional; parameters: inhibition (INH): concentration or dose not given beside the values; conditions: not given

Row | SMILES | inhibition (INH) [%]
7 | O=C(CSc1nnc(-c2cc3ccccc3oc2=O)o1)Nc1nc2ccc(Br)cc2s1 | 99
8 | COc1cc(/C=C/c2c(C#N)c(=O)oc3ccc(Cl)cc23)cc(OC)c1OC | 87
9 | Cc1ccc(C)c2c(CC(=O)N/N=C/c3ccccc3)cc(=O)oc12 | 70
10 | Cc1ccc(C)c2c(CC(=O)N/N=C/c3ccccc3[N+](=O)[O-])cc(=O)oc12 | 65
11 | O=C(Cc1cc(=O)oc2cc(O)ccc12)N/N=C/c1cccc([N+](=O)[O-])c1 | 93
12 | N#Cc1c(/C=C/c2c3ccccc3cc3ccccc23)c2cc(Cl)ccc2oc1=O | 81
13 | CN(C)c1ccc(/C=C/c2c(C#N)c(=O)oc3ccc(Cl)cc23)cc1 | 79
14 | COc1ccc(-c2cc(-c3ccc(Nc4cc(=O)oc5ccccc45)cc3)nc(N)c2C#N)cc1OC | 99
15 | O=C(CSc1nnc(-c2cc3ccccc3oc2=O)o1)Nc1ccc(I)cc1 | 99
16 | N#Cc1c(/C=C/c2cccc(-c3ccccc3)c2)c2cc(Cl)ccc2oc1=O | 72
17 | O=C(c1ccncc1)n1nc(-c2ccc(F)cc2)cc1-c1cc2ccccc2oc1=O | 80.09

same assay, conditions: Mycobacterium tuberculosis, H37Rv

Row | SMILES | MIC [mg/L]
18 | COc1cc2ccc(=O)oc2cc1O [SCOPOLETIN] | 42.1 (≈ 219 µM)
19 | O=C(CSc1nnc(-c2cc3ccccc3oc2=O)o1)Nc1nc2ccc(Br)cc2s1 | 12.5 (≈ 24.3 µM)
20 | Cc1ccc(O)c(C(=O)c2ccc(-c3cc4ccccc4oc3=O)nc2)c1 | 100 (≈ 280 µM)
21 | Cc1cc(=O)oc2cc(OCc3cn(Cc4cc(=O)oc5ccc(Cl)cc45)nn3)ccc12 | 6.25 (≈ 13.9 µM)
22 | COc1ccc2ccc(=O)oc2c1C(CO)=C(C)C | 50 (≈ 192 µM)
23 | COc1cccc2cc(-c3ccc(C(=O)c4cc(C)ccc4O)cn3)c(=O)oc12 | 62.5 (≈ 161 µM)
24 | O=C(CN1CCN(c2cc3c(cc2F)c(=O)c(C(=O)O)cn3C2CC2)CC1)c1cc2ccc(O)cc2oc1=O | 0.5 (≈ 0.937 µM)
25 | COc1cc2oc(=O)ccc2cc1[C@H]1OC(=O)[C@]2(C)O[C@H]12 | 50 (≈ 173 µM)
26 | O=C(N/N=C/c1cccc(O)c1)c1cc2ccccc2oc1=O | 50 (≈ 162 µM)
27 | C=CC(C)(C)c1c(O)c2c(c3ccc(=O)oc13)OC(C)(C)C=C2 | 100 (≈ 320 µM)
28 | COc1ccc2cc(C(=O)CN3CCN(c4c(F)cc5c(=O)c(C(=O)O)cn(C6CC6)c5c4OC)CC3)c(=O)oc2c1 | 0.25 (≈ 0.433 µM)
29 | Cc1cc(=O)oc2cc(OCc3cn(Cc4cc(=O)oc5ccc6ccccc6c45)nn3)ccc12 | 6.25 (≈ 13.4 µM)
30 | O=c1ccc2c(O)c3ccoc3cc2o1 [BERGAPTOL] | 100 (≈ 495 µM)
31 | C=CC(C)(C)c1c2c(c(O)c3ccc(=O)oc13)C(=O)CC(C)(C)O2 | 200 (≈ 609 µM)
32 | Cc1cc(=O)oc2cc(OCc3cn(Cc4cc(=O)oc5cc(Cl)ccc45)nn3)ccc12 | 6.25 (≈ 13.9 µM)
33 | COc1ccc(-c2cc(-c3ccc(Nc4cc(=O)oc5ccccc45)cc3)nc(N)c2C#N)cc1OC | 12.5 (≈ 25.5 µM)
34 | O=C(CSc1nnc(-c2cc3ccccc3oc2=O)o1)Nc1ccc(I)cc1 | 12.5 (≈ 24.7 µM)
35 | O=C(c1ccncc1)n1nc(-c2ccc(F)cc2)cc1-c1cc2ccccc2oc1=O | 0.625 (≈ 1.52 µM)
36 | Cc1ccc(O)c(C(=O)c2ccc(-c3cc4cc(Br)ccc4oc3=O)nc2)c1 | 100 (≈ 229 µM)
37 | O=C(N/N=C/c1ccc([N+](=O)[O-])cc1)c1cc2ccccc2oc1=O | 100 (≈ 296 µM)
38 | C=CC(C)(C)c1c2c(c(OC)c3ccc(=O)oc13)C=CC(C)(C)O2 [DENTATIN] | 50 (≈ 153 µM)

tested on: Mycolicibacterium smegmatis; assay: Antimicrobial activity against Mycobacterium smegmatis; format: functional; conditions: not given

Row | SMILES | MIC [mg/L]
39 | C/C(=C\CC/C(C)=C/Cc1c(O)c2ccccc2oc1=O)CC/C=C(\C)COC(=O)c1ccccc1 | 2 (≈ 4.11 µM)
40 | CC(C)=CCC/C(C)=C/CC/C(C)=C/Cc1c(O)c2ccccc2oc1=O | 0.5 (≈ 1.36 µM)
41 | O=C(CN1CCN(c2cc3c(cc2F)c(=O)c(C(=O)O)cn3C2CC2)CC1)c1cc2ccc(O)cc2oc1=O | 3.12 (≈ 5.85 µM)
42 | COc1c2c(cc3oc(=O)c(-c4ccc(O)cc4)c(O)c13)OC(C)(C)C=C2 | 18 (≈ 49.1 µM)
43 | COc1ccc2cc(C(=O)CN3CCN(c4c(F)cc5c(=O)c(C(=O)O)cn(C6CC6)c5c4OC)CC3)c(=O)oc2c1 | 6.25 (≈ 10.8 µM)
44 | C/C(=C\CC/C(C)=C/CC/C(C)=C/Cc1c(O)c2ccccc2oc1=O)CO | 16 (≈ 41.8 µM)
45 | CC(=O)OC/C(C)=C/CC/C(C)=C/CC/C(C)=C/Cc1c(O)c2ccccc2oc1=O | 8 (≈ 18.8 µM)

tested on: Mycobacterium tuberculosis; assay: Ratio of MXFX IC50 to compound IC50 Mycobacterium tuberculosis H37Rv assessed as growth inhibition; format: functional; conditions: not given

Row | SMILES | Ratio IC50
46 | COc1ccc2cc(C(=O)CN3CCN(c4c(F)cc5c(=O)c(C(=O)O)cn(C6CC6)c5c4OC)CC3)c(=O)oc2c1 | 2

tested on: Mycobacterium tuberculosis; assay: Ratio of 8-OCH3 IC50 to compound IC50 Mycobacterium tuberculosis H37Rv assessed as growth inhibition; format: functional; conditions: not given

Row | SMILES | Ratio IC50
47 | COc1ccc2cc(C(=O)CN3CCN(c4c(F)cc5c(=O)c(C(=O)O)cn(C6CC6)c5c4OC)CC3)c(=O)oc2c1 | 2

tested on: Mycobacterium tuberculosis; assay: Ratio of GTFX IC50 to compound IC50 Mycobacterium tuberculosis H37Rv assessed as growth inhibition; format: functional; conditions: not given

Row | SMILES | Ratio IC50
48 | COc1ccc2cc(C(=O)CN3CCN(c4c(F)cc5c(=O)c(C(=O)O)cn(C6CC6)c5c4OC)CC3)c(=O)oc2c1 | 2

tested on: Mycobacterium tuberculosis; assay: Ratio of RIF IC50 to compound IC50 Mycobacterium tuberculosis H37Rv assessed as growth inhibition; format: functional; conditions: not given

Row | SMILES | Ratio IC50
49 | COc1ccc2cc(C(=O)CN3CCN(c4c(F)cc5c(=O)c(C(=O)O)cn(C6CC6)c5c4OC)CC3)c(=O)oc2c1 | 2

tested on: Mycolicibacterium fortuitum; assay: Antimycobacterial activity against Mycobacterium fortuitum; format: functional; conditions: not given

Row | SMILES | MIC [mg/L]
50 | CC(C)=CCC/C(C)=C/CC/C(C)=C/Cc1c(O)c2ccccc2oc1=O | 2 (≈ 5.46 µM)

tested on: Mycobacterium tuberculosis; assay: Antimycobacterial activity against Mycobacterium tuberculosis H37Rv assessed as growth inhibition at 128 ug/ml by Alamar Blue staining-based broth microdilution assay; format: functional; conditions: not given

Row | SMILES | inhibition at 128 µg/mL [%]
51 | COc1ccc(C2NC(=O)Nc3c2c(=O)oc2ccc(C)cc32)cc1 (centres undefined) | 58
52 | COc1ccc(C2NC(=O)Nc3c2c(=O)oc2ccc(C)cc32)cc1OC (centres undefined) | 55
53 | O=C1Nc2c(c(=O)oc3ccccc23)C(c2ccccc2O)N1 (centres undefined) | 45

tested on: Mycolicibacterium phlei; assay: Antimycobacterial activity against Mycobacterium phlei; format: functional; conditions: not given

Row | SMILES | MIC [mg/L]
54 | C/C(=C\CC/C(C)=C/Cc1c(O)c2ccccc2oc1=O)CC/C=C(\C)COC(=O)c1ccccc1 | 2 (≈ 4.11 µM)
55 | C/C(=C\CC/C(C)=C/CC/C(C)=C/Cc1c(O)c2ccccc2oc1=O)CO | 16 (≈ 41.8 µM)
56 | CC(=O)OC/C(C)=C/CC/C(C)=C/CC/C(C)=C/Cc1c(O)c2ccccc2oc1=O | 8 (≈ 18.8 µM)

tested on: Mycobacterium tuberculosis; assay: Antimycobacterial activity against Mycobacterium tuberculosis H37Rv assessed as growth inhibition at 128 ug/ml by low-oxygen recovery assay; format: functional; conditions: not given

Row | SMILES | inhibition at 128 µg/mL [%]
57 | COc1ccc(C2NC(=O)Nc3c2c(=O)oc2ccc(C)cc32)cc1 (centres undefined) | 62
58 | COc1ccc(C2NC(=O)Nc3c2c(=O)oc2ccc(C)cc32)cc1OC (centres undefined) | 35
59 | O=C1Nc2c(c(=O)oc3ccccc23)C(c2ccccc2O)N1 (centres undefined) | 37
